From US20260262643A1, “HERBICIDAL BENZOXAZINES” (FMC CORPORATION, priority 2022, published 2026)

How the values were obtained:
galium = assay: Test A postemergence; format: in vivo, Galium aparine; conditions: postemergence, 10 days; for Galium plant response rating: 125 g ai/ha, 0 to 100 scale, 0 no effect, 100 complete control; for Plant response rating, Galium: 500 g ai/ha, visual injury, 0 to 100 scale (0 no effect, 100 complete control)
Method in brief: (§1)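 Loam/sand soil; pre-em directed soil spray at planting, post-em spray at 1–2 leaf (2–10 cm). Compound in non-phytotoxic solvent + surfactant. Greenhouse 10 d; visual injury vs untreated, 0 = no effect, 100 = complete control.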

foxtail, giant [1] = assay: Test A postemergence; format: in vivo, Setaria faberi; conditions: postemergence, 10 days; for Foxtail, Giant plant response rating: 125 g ai/ha, 0 to 100 scale, 0 no effect, 100 complete control; for Plant response rating, Foxtail, Giant: 500 g ai/ha, visual injury, 0 to 100 scale (0 no effect, 100 complete control)
Method in brief: as §1

ducksalad = assay: Test B flooded paddy test; format: in vivo, Heteranthera limosa; conditions: 250 g ai/ha, Flood, 13 days, 0 to 100 scale (0 no effect, 100 complete control)
Method in brief: (§2)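 Visual scores from 0 (no effect) to 100 (complete kill) were assigned 13 days after treatment by comparison with controls. Seedlings had been treated at two leaves by adding compound to floodwater standing 3 cm deep, kept at that level in the greenhouse.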

ragweed [2] = assay: Test A preemergence; format: in vivo, Ambrosia artemisiifolia
Method in brief: as §1

horseweed = assay: Test A postemergence; format: in vivo, Erigeron canadensis; conditions: postemergence, 10 days; for Horseweed plant response rating: 125 g ai/ha, 0 to 100 scale, 0 no effect, 100 complete control; for Plant response rating, Horseweed: 500 g ai/ha, visual injury, 0 to 100 scale (0 no effect, 100 complete control)
Method in brief: as §1

soybean [3] = assay: Test A preemergence; format: in vivo, Glycine max
Method in brief: as §1

corn [4] = assay: Test A postemergence; format: in vivo, Zea mays; conditions: postemergence, 10 days; for Corn plant response rating: 125 g ai/ha, 0 to 100 scale, 0 no effect, 100 complete control; for Plant response rating, Corn: 500 g ai/ha, visual injury, 0 to 100 scale (0 no effect, 100 complete control)
Method in brief: as §1

goosegrass [5] = assay: Test A preemergence; format: in vivo, Eleusine indica
Method in brief: as §1

rice = assay: Test B flooded paddy test; format: in vivo, Oryza sativa; conditions: 250 g ai/ha, Flood, 13 days, 0 to 100 scale (0 no effect, 100 complete control)
Method in brief: as §2

foxtail, giant [6] = assay: Test A preemergence; format: in vivo, Setaria faberi
Method in brief: as §1

sedge, umbrella = assay: Test B flooded paddy test; format: in vivo, Cyperus difformis; conditions: 250 g ai/ha, Flood, 13 days, 0 to 100 scale (0 no effect, 100 complete control)
Method in brief: as §2

kochia [7] = assay: Test A preemergence; format: in vivo, Bassia scoparia
Method in brief: as §1

oat, wild [8] = assay: Test A preemergence; format: in vivo, Avena fatua
Method in brief: as §1

wheat [9] = assay: Test A postemergence; format: in vivo, Triticum aestivum; conditions: postemergence, 10 days; for Wheat plant response rating: 125 g ai/ha, 0 to 100 scale, 0 no effect, 100 complete control; for Plant response rating, Wheat: 500 g ai/ha, visual injury, 0 to 100 scale (0 no effect, 100 complete control)
Method in brief: as §1

wheat [10] = assay: Test A preemergence; format: in vivo, Triticum aestivum
Method in brief: as §1

kochia [11] = assay: Test A postemergence; format: in vivo, Bassia scoparia; conditions: postemergence, 10 days; for Kochia plant response rating: 125 g ai/ha, 0 to 100 scale, 0 no effect, 100 complete control; for Plant response rating, Kochia: 500 g ai/ha, visual injury, 0 to 100 scale (0 no effect, 100 complete control)
Method in brief: as §1

ragweed [12] = assay: Test A postemergence; format: in vivo, Ambrosia artemisiifolia; conditions: postemergence, 10 days; for Ragweed plant response rating: 125 g ai/ha, 0 to 100 scale, 0 no effect, 100 complete control; for Plant response rating, Ragweed: 500 g ai/ha, visual injury, 0 to 100 scale (0 no effect, 100 complete control)
Method in brief: as §1

pigweed, palmer [13] = assay: Test A postemergence; format: in vivo, Amaranthus palmeri; conditions: postemergence, 10 days; for Pigweed, Palmer plant response rating: 125 g ai/ha, 0 to 100 scale, 0 no effect, 100 complete control; for Plant response rating, Pigweed, Palmer: 500 g ai/ha, visual injury, 0 to 100 scale (0 no effect, 100 complete control)
Method in brief: as §1

goosegrass [14] = assay: Test A postemergence; format: in vivo, Eleusine indica; conditions: postemergence, 10 days; for Goosegrass plant response rating: 125 g ai/ha, 0 to 100 scale, 0 no effect, 100 complete control; for Plant response rating, Goosegrass: 500 g ai/ha, visual injury, 0 to 100 scale (0 no effect, 100 complete control)
Method in brief: as §1

barnyardgrass = assay: Test B flooded paddy test; format: in vivo, Echinochloa crus-galli; conditions: 250 g ai/ha, Flood, 13 days, 0 to 100 scale (0 no effect, 100 complete control)
Method in brief: as §2

ryegrass, Italian [15] = assay: Test A postemergence; format: in vivo, Lolium multiflorum; conditions: postemergence, 10 days; for Ryegrass, Italian plant response rating: 125 g ai/ha, 0 to 100 scale, 0 no effect, 100 complete control; for Plant response rating, Ryegrass, Italian: 500 g ai/ha, visual injury, 0 to 100 scale (0 no effect, 100 complete control)
Method in brief: as §1

ryegrass, Italian [16] = assay: Test A preemergence; format: in vivo, Lolium multiflorum
Method in brief: as §1

soybean [17] = assay: Test A postemergence; format: in vivo, Glycine max; conditions: postemergence, 10 days; for Soybean plant response rating: 125 g ai/ha, 0 to 100 scale, 0 no effect, 100 complete control; for Plant response rating, Soybean: 500 g ai/ha, visual injury, 0 to 100 scale (0 no effect, 100 complete control)
Method in brief: as §1

corn [18] = assay: Test A preemergence; format: in vivo, Zea mays
Method in brief: as §1

blackgrass [19] = assay: Test A preemergence; format: in vivo, Alopecurus myosuroides
Method in brief: as §1

oat, wild [20] = assay: Test A postemergence; format: in vivo, Avena fatua; conditions: postemergence, 10 days; for Oat, Wild plant response rating: 125 g ai/ha, 0 to 100 scale, 0 no effect, 100 complete control; for Plant response rating, Oat, Wild: 500 g ai/ha, visual injury, 0 to 100 scale (0 no effect, 100 complete control)
Method in brief: as §1

blackgrass [21] = assay: Test A postemergence; format: in vivo, Alopecurus myosuroides; conditions: postemergence, 10 days; for Blackgrass plant response rating: 125 g ai/ha, 0 to 100 scale, 0 no effect, 100 complete control; for Plant response rating, Blackgrass: 500 g ai/ha, visual injury, 0 to 100 scale (0 no effect, 100 complete control)
Method in brief: as §1

pigweed, palmer [22] = assay: Test A preemergence; format: in vivo, Amaranthus palmeri
Method in brief: as §1

[23] = 125 g ai/ha, visual injury after 10 days, 0 to 100 scale, 0 is no effect, 100 is complete control
[24] = 500 g ai/ha, 0 to 100 scale (0 no effect, 100 complete control), 10 days

CCc1ncn(-c2cccc(C(=O)N3C[C@H](C)Oc4c(Cl)cccc43)c2)n1 [Compound 91]
80: Foxtail, Giant plant response rating (foxtail, giant [1]) | Plant response rating, Corn (corn [4]) | Plant response rating, Wheat (wheat [9]) | Kochia plant response rating (kochia [11]) | Goosegrass plant response rating (goosegrass [14]) | Ryegrass, Italian plant response rating (ryegrass, Italian [15]) | Plant response rating, Blackgrass (blackgrass [19]; [23])
0: Plant response rating, Ragweed (ragweed [2]; [23]) | Horseweed plant response rating (horseweed) | Plant response rating, Rice (rice) | Plant response rating, Wheat (wheat [10]; [23])
100: Galium plant response rating (galium) | Plant response rating, Galium (galium) | Plant response rating, Goosegrass (goosegrass [5]; [23]) | Plant response rating, Goosegrass (goosegrass [5]; [24]) | Plant response rating, Foxtail, Giant (foxtail, giant [6]; [24]) | Plant response rating, Kochia (kochia [7]; [24]) | Plant response rating, Kochia (kochia [11]) | Plant response rating, Ryegrass, Italian (ryegrass, Italian [15]) | Plant response rating, Ryegrass, Italian (ryegrass, Italian [16]; [24]) | Soybean plant response rating (soybean [17]) | Plant response rating, Soybean (soybean [17]) | Plant response rating, Blackgrass (blackgrass [21]) | Plant response rating, Pigweed, Palmer (pigweed, palmer [22]; [24])
60: Corn plant response rating (corn [4]) | Plant response rating, Corn (corn [18]; [24])
10: Plant response rating, Oat, Wild (oat, wild [8]; [23])
50: Oat, Wild plant response rating (oat, wild [20])
20: Plant response rating, Horseweed (horseweed) | Plant response rating, Soybean (soybean [3]; [23]) | Plant response rating, Wheat (wheat [10]; [24])
35: Plant response rating, Sedge, Umbrella (sedge, umbrella)
25: Plant response rating, Barnyardgrass (barnyardgrass)
70: Plant response rating, Soybean (soybean [3]; [24]) | Plant response rating, Ragweed (ragweed [12]) | Pigweed, Palmer plant response rating (pigweed, palmer [13])
90: Plant response rating, Foxtail, Giant (foxtail, giant [1]) | Plant response rating, Ducksalad (ducksalad) | Plant response rating, Foxtail, Giant (foxtail, giant [6]; [23]) | Plant response rating, Kochia (kochia [7]; [23]) | Plant response rating, Oat, Wild (oat, wild [8]; [24]) | Plant response rating, Pigweed, Palmer (pigweed, palmer [13]) | Plant response rating, Goosegrass (goosegrass [14]) | Plant response rating, Ryegrass, Italian (ryegrass, Italian [16]; [23]) | Plant response rating, Blackgrass (blackgrass [19]; [24]) | Plant response rating, Oat, Wild (oat, wild [20]) | Blackgrass plant response rating (blackgrass [21]) | Plant response rating, Pigweed, Palmer (pigweed, palmer [22]; [23])
30: Plant response rating, Ragweed (ragweed [2]; [24]) | Wheat plant response rating (wheat [9]) | Ragweed plant response rating (ragweed [12]) | Plant response rating, Corn (corn [18]; [23])

CCc1ncn(-c2ccc(C)c(C(=O)N3C[C@H](C)Oc4c(C)cccc43)c2)n1 [Compound 98]
100: Galium plant response rating (galium) | Plant response rating, Galium (galium) | Plant response rating, Soybean (soybean [3]; [24]) | Plant response rating, Goosegrass (goosegrass [5]; [23]) | Plant response rating, Goosegrass (goosegrass [5]; [24]) | Plant response rating, Foxtail, Giant (foxtail, giant [6]; [23]) | Plant response rating, Foxtail, Giant (foxtail, giant [6]; [24]) | Plant response rating, Kochia (kochia [7]; [24]) | Plant response rating, Pigweed, Palmer (pigweed, palmer [13]) | Plant response rating, Goosegrass (goosegrass [14]) | Plant response rating, Ryegrass, Italian (ryegrass, Italian [15]) | Plant response rating, Ryegrass, Italian (ryegrass, Italian [16]; [23]) | Plant response rating, Ryegrass, Italian (ryegrass, Italian [16]; [24]) | Soybean plant response rating (soybean [17]) | Plant response rating, Soybean (soybean [17]) | Plant response rating, Pigweed, Palmer (pigweed, palmer [22]; [23]) | Plant response rating, Pigweed, Palmer (pigweed, palmer [22]; [24])
80: Plant response rating, Kochia (kochia [7]; [23]) | Wheat plant response rating (wheat [9]) | Kochia plant response rating (kochia [11]) | Goosegrass plant response rating (goosegrass [14]) | Plant response rating, Blackgrass (blackgrass [19]; [24]) | Oat, Wild plant response rating (oat, wild [20])
60: Plant response rating, Horseweed (horseweed) | Plant response rating, Wheat (wheat [10]; [24]) | Ragweed plant response rating (ragweed [12]) | Plant response rating, Ragweed (ragweed [12]) | Plant response rating, Blackgrass (blackgrass [19]; [23])
45: Plant response rating, Barnyardgrass (barnyardgrass)
90: Foxtail, Giant plant response rating (foxtail, giant [1]) | Plant response rating, Foxtail, Giant (foxtail, giant [1]) | Plant response rating, Ragweed (ragweed [2]; [24]) | Plant response rating, Soybean (soybean [3]; [23]) | Plant response rating, Corn (corn [4]) | Plant response rating, Sedge, Umbrella (sedge, umbrella) | Plant response rating, Oat, Wild (oat, wild [8]; [24]) | Plant response rating, Wheat (wheat [9]) | Plant response rating, Kochia (kochia [11]) | Pigweed, Palmer plant response rating (pigweed, palmer [13]) | Plant response rating, Oat, Wild (oat, wild [20]) | Plant response rating, Blackgrass (blackgrass [21])
65: Plant response rating, Ducksalad (ducksalad)
70: Plant response rating, Oat, Wild (oat, wild [8]; [23]) | Ryegrass, Italian plant response rating (ryegrass, Italian [15]) | Blackgrass plant response rating (blackgrass [21])
50: Corn plant response rating (corn [4]) | Plant response rating, Wheat (wheat [10]; [23])
10: Plant response rating, Corn (corn [18]; [23])
30: Plant response rating, Ragweed (ragweed [2]; [23]) | Horseweed plant response rating (horseweed) | Plant response rating, Rice (rice) | Plant response rating, Corn (corn [18]; [24])
